Measurements as given in patent US20100183600A1, “RAF Inhibitors and Their Uses” (ARQULE, INC., priority 2008, published 2010).
Counter-ions that a name gives are not always drawn.

Legend:
[1] = test system: WM-266-4; experiment: Cell growth inhibition assay (MTS); format: cell-based; conditions: Homo sapiens; WM-266-4, 72 hours
Protocol: (§1) Compounds of the present invention have been tested for activity against a variety of cancer cell lines. The ability of compounds to inhibit cell growth in this assay is correlated with the reduction of dehydrogenase enzyme activity found in metabolically active cells.
(§2) Materials: A large variety of cancer cells from ATCC were maintained at 37° C., 5% CO2 in DMEM media supplemented with 10% fetal bovine serum, penicillin/streptomycin and fungizone (Invitrogen). NCM460 (Incell), a normal colon epithelial cell line, and human mammary epithelial cells (Cambrex) were maintained at 37° C., 5% CO2 in DMEM and HEBM media (Cambrex), respectively.
(§3) Methods: Test compounds were dissolved and diluted to 300× in DMSO then diluted 1:40 in DMEM. Cells were seeded into 96-well tissue culture plates at 1-5×10^3 per well and cultured at 37° C. for 24 h. Cells were incubated with test compounds for 72 hours followed by incubation with tetrazolium compound (3-(4,5-dimethylthiazol-2-yl)-5-(3-carboxymethoxyphenyl)-2-(4-sulfophenyl)-2H-tetrazolium, inner salt; MTS) and the electron coupling reagent, phenazine methosulfate (PMS) for 4 hr. […] The measurement of the absorbance of the formazan was assessed using an ENVISION™ (Perkin Elmer) microplate reader at 492 nm. The calculated IC50 value is the concentration of the test compound that causes a 50% decrease in the absorbance.

[2] = test system: RKO; experiment: Cell growth inhibition assay (MTS); format: cell-based; conditions: Homo sapiens, 72 hours
Protocol: as §1, §2, §3

[3] = test system: SK-MEL-28; experiment: Cell growth inhibition assay (MTS); format: cell-based; conditions: Homo sapiens; SK-MEL-28, 72 hours
Protocol: as §1, §2, §3

[4] = test system: SK-MEL-2; experiment: Cell growth inhibition assay (MTS); format: cell-based; conditions: Homo sapiens; SK-MEL-2, 72 hours
Protocol: as §1, §2, §3

[5] = test system: DLD-1; experiment: Cell growth inhibition assay (MTS); format: cell-based; conditions: Homo sapiens; DLD-1, 72 hours
Protocol: as §1, §2, §3

[6] = test system: A375; experiment: Cell growth inhibition assay (MTS); format: cell-based; conditions: Homo sapiens, A-375, 72 h, A375, 72 hours
Protocol: as §1, §2, §3

[7] = test system: p-Erk (A375); experiment: Cell-based phosphorylation assay with electroblotting readout; parameters: species or system human; conditions: Homo sapiens, A-375; A375 cells, 1 hr
Text: Compounds of the present invention have been screened for their ability to inhibit all isoforms, both wild-type and mutant of RAF kinases (A-RAF, B-RAF and C-RAF) in general, and the mutant B-RAF (V600E) in particular in human cancer cells. A375 is a human melanoma cell line that harbors the most common B-RAF mutation-V600E found in human cancers. The ability of compounds to inhibit RAF kinases in this assay is correlated with the reduction of MEK and ERK phosphorylation, and is therefore a direct indicator of potential in vivo therapeutic activity.
Materials: A375 cells from ATCC were maintained at 37° C., 5% CO2 in DMEM media supplemented with 10% fetal bovine serum, penicillin/streptomycin and fungizone. (Invitrogen)
Methods: Test compounds were dissolved and diluted 1:1000 in DMSO. A375 cells were seeded in six-well tissue culture plates at 5-8×10^5 per well and cultured at 37° C. for 24 h. Cells were incubated with compounds for one hour before being lysed in EPage™ loading buffer (Invitrogen). Lysates were electrophoresed on 8% EPage™ gels and transferred to polyvinylidene difluoride membranes. After incubations with primary and secondary antibodies, the immunostained proteins were detected and quantitated by an Odyssey infrared imager (LI-COR). Analysis was performed by non-linear regression to generate a dose response curve. The calculated IC50 value was the concentration of the test compound that causes a 50% decrease in phospho-MEK and phospho-ERK levels. The primary antibodies used were anti-MEK (Stressgen), anti-ERK (BD Biosciences), anti-phospho-ERK and anti-phospho-MEK (Cell Signaling). The secondary antibodies used were IRDYE800 anti-rabbit, IRDYE 800 anti-mouse (Rockland), AlexaFluor680 anti-mouse and AlexaFluoro680 anti-rabbit (Invitrogen).
A375 cells were treated with 0, 12, 37, 111, 333 and 1000 nM of indicated compounds for 1 hr. The levels of Phospho-ERK and total-ERK were accessed by immunoblotting.

[8] = molecular target: T1, mutant B-RAF (Homo sapiens, UniProt P15056, V600E); experiment: Measurement of RAF activity (MEK-1 phosphorylation); format: biochemical; conditions: 50 μM ATP, MEK-1 substrate; read-out: Mut-B-Raf IC50
T1 construct: purchased Upstate (Charlottesville, Va.)
T1 sequence (P15056 whole entry V600E): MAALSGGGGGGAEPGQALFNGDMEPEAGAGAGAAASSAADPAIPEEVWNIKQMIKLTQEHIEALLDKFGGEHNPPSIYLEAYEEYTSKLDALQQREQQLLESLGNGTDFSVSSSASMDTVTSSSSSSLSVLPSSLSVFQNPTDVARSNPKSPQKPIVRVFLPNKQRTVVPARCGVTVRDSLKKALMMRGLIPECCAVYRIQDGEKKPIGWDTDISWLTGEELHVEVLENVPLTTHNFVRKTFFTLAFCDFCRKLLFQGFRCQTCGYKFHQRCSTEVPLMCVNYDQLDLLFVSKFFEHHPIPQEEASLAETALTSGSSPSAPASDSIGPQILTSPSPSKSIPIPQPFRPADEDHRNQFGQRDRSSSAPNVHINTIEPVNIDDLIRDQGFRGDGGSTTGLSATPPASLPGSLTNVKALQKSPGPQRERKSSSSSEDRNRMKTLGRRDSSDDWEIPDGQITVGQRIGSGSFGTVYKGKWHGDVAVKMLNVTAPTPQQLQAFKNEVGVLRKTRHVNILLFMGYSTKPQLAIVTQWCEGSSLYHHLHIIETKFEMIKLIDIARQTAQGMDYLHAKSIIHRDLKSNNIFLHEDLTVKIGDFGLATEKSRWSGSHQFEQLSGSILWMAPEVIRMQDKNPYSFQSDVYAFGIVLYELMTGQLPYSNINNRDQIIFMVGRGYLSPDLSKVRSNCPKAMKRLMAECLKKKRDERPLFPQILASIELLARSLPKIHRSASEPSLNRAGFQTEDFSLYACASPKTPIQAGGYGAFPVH
Protocol: Materials: The RAF kinases and the anti-phospho MEK1/2 antibody were from Upstate (Charlottesville, Va.). The RAF substrate used was full length N-terminal GST-MEK-1, which was expressed in E. coli and purified in-house by HPLC. All proteins were aliquoted and stored at −80° C. Superblock™ in phosphate buffered saline (PBS) blocking reagent was form Pierce (cat. #37515). ATP was from Roche (cat. # 19035722). Alkaline Phosphatase-tagged goat anti-rabbit antibody was from Pierce (cat. # 31340).
Methods: All RAF biochemical assays were performed using an assay buffer containing 20 mM MOPS, 5 mM EGTA, 37.5 mM MgCl2, 1 mM DTT and 50 μM ATP. There was 6.25 ng/well mutant B-RAF and 7.5 ng/well MEK-1 in the final assay conditions. Compounds were serially diluted in assay buffer containing 1% DMSO and 20 μl of test compound at a concentration 3-fold more than the final concentration, and were added to a polypropylene V-well reaction plate. Vehicle control wells received buffer only with DMSO at equivalent concentrations to the test wells. […] These reaction plates were incubated at room temperature for 30 minutes. Capture of MEK-1 was initiated by transferring 50 μl of the reaction mixture to a Nunc Maxisorp™ microplate that is designed for non-specific protein capture. After 30 minute capture of MEK-1 at room temperature, this plate was washed with TBST (6×200 μL/well) to fully terminate the reaction. The plate was then blocked for 1 hour by the addition of 100 μl/well of Superblock™ in phosphate buffered saline (PBS) blocking reagent. Plate was again washed with TBST (6 times with 200 μl/well), followed by the addition of 70 μl/well of Upstate anti-phospho MEK ½ diluted 1:1000 in Pierce Superblock (PBS). After a 60 minute incubation, this plate was washed with TBST (6 times with 200 μl/well), and 70 μl of the secondary antibody (Pierce Alkaline Phosphatase tagged goat anti-rabbit) prepared at 1:4000 in Superblock, were added. After a 45 minute incubation at room temperature, the wells of the microplate were washed with TBST (6 times with 200 μl/well), and thereafter 100 μl/well of Attophos™ fluorescent alkaline phosphatase substrate was added according to the manufacturer's instructions (JBL Scientific). Fluorescence was read on a Perkin Elmer Envision multilabel reader, using the following filters: Excitation Filter: CFP430 nM, Emission Filter: Emission Filter 579 nM.

Compound | melting point [°C] | GI50 [1] [nM] | GI50 [2] [nM] | GI50 [3] [nM] | GI50 [4] [nM] | GI50 [5] [nM] | GI50 [6] [nM] | EC50 [7] [nM] | IC50 [8] [nM]
O=P(O)(O)Oc1cccc(-c2nc3sccn3c2-c2cccc(N[C@@H]3CCCN(S(=O)(=O)c4ccc(Cl)cc4)C3)c2)c1 (as salt: phosphate) | 239 to 245 | – | – | – | – | – | – | – | –
O=S(=O)(c1ccc(Cl)cc1)N1CCC[C@@H](Nc2nccc(-c3c(-c4cccc(O)c4)nc4occn34)n2)C1 [Compound 4, (R)-3-(5-(2-(1-(4-chlorophenylsulfonyl)piperidin-3-ylamino)pyrimidin-4-yl)imidazo[2,1-b]oxazol-6-yl)phenol] | – | 15 | 1810 | 1120 | 1800 | 15400 | 0.54 | 35 | 10
O=S(=O)(c1ccc(Cl)cc1)N1CCC(Nc2nccc(-c3c(-c4cccc(O)c4)nc4sccn34)n2)CC1 [Compound 7, 3-(5-(2-(1-(4-chlorophenylsulfonyl)piperidin-4-ylamino)pyrimidin-4-yl)imidazo[2,1-b]thiazol-6-yl)phenol] | – | 6 | 85 | 88 | 519 | 5520 | < 0.4 | 82 | 8
O=S(=O)(c1ccc(F)cc1)N1CCC(Nc2nccc(-c3c(-c4cccc(O)c4)nc4occn34)n2)CC1 [Compound 9, 3-(5-(2-(1-(4-fluorophenylsulfonyl)piperidin-4-ylamino)pyrimidin-4-yl)imidazo[2,1-b]oxazol-6-yl)phenol] | – | < 0.4 | 283 | 300 | 356 | 1620 | < 0.4 | 129 | 48
O=S(=O)(C1CC1)N1CCC(Nc2nccc(-c3c(-c4cccc(O)c4)nc4occn34)n2)CC1 [Compound 11, 3-(5-(2-(1-(cyclopropylsulfonyl)piperidin-4-ylamino)pyrimidin-4-yl)imidazo[2,1-b]oxazol-6-yl)phenol] | – | 3 | 323 | 555 | 2040 | 13900 | < 0.4 | 53 | 48
Cn1ccc(S(=O)(=O)N2CCC[C@@H](Nc3nccc(-c4c(-c5cccc(O)c5)nc5sccn45)n3)C2)n1 [Compound 14, (R)-3-(5-(2-(1-(1-methyl-1H-pyrazol-3-ylsulfonyl)piperidin-3-ylamino)pyrimidin-4-yl)imidazo[2,1-b]thiazol-6-yl)phenol] | – | 5 | 122 | 74 | 170 | 3000 | 2 | 2 | 6
Cn1ccc(S(=O)(=O)N2CCC(Nc3nccc(-c4c(-c5cccc(O)c5)nc5occn45)n3)CC2)n1 [Compound 20, 3-(5-(2-(1-(1-methyl-1H-pyrazol-3-ylsulfonyl)piperidin-4-ylamino)pyrimidin-4-yl)imidazo[2,1-b]oxazol-6-yl)phenol] | – | 2 | 372 | 393 | 310 | 9470 | < 0.4 | 73 | 13
Cn1ccc(S(=O)(=O)N2CCC[C@@H](Nc3nccc(-c4c(-c5ccc(F)c(O)c5)nc5occn45)n3)C2)n1 [Compound 22, (R)-2-fluoro-5-(5-(2-(1-(1-methyl-1H-pyrazol-3-ylsulfonyl)piperidin-3-ylamino)pyrimidin-4-yl)imidazo[2,1-b]oxazol-6-yl)phenol] | – | < 0.4 | 52 | 33 | 42.8 | 5920 | < 0.4 | 34 | 0.96
